Measured values reported in US10106534B2 (CELGENE QUANTICEL RESEARCH, INC., priority 2014, dated 2018).
Where a name gives a salt, the structure may show the parent alone.

How the values were obtained:
[1] = target: JMJD2C (Homo sapiens (Human), UniProt Q9H3R0); assay: In vitro enzyme inhibition assay for JMJD2C activity (TR-FRET); assay type: biochemical
Description: This assay determines the ability of a test compound to inhibit JMJD2C demethylase activity. Baculovirus expressed JMJD2C (GenBank Accession #BC143571, AA 2-372) was purchased from BPS Bioscience (Cat#50105).
The ability of test compounds to inhibit the activity of JMJD2C was determined in 384-well plate format under the following reaction conditions: 0.3 nM JMJD2C, 300 nM H3K9me3-biotin labeled peptide (Anaspec cat #64360), 2 μM alpha-ketoglutaric acid in assay buffer of 50 mM HEPES, pH7.3, 0.005% Brij35, 0.5 mM TCEP, 0.2 mg/ml BSA, 50 μM sodium L-ascorbate, and 2 μM ammonium iron(II) sulfate. Reaction product was determined quantitatively by TR-FRET after the addition of detection reagent Phycolink Streptavidin-allophycocyanin (Prozyme) and Europium-anti-di-methylated histone H3 lysine 9 (H3K9me2) antibody (PerkinElmer) in the presence of 5 mM EDTA in LANCE detection buffer (PerkinElmer) at a final concentration of 50 nM and 1 nM, respectively.
The assay reaction was initiated by the following: 2 μl of the mixture of 900 nM H3K9me3-biotin labeled peptide and 6 μM alpha-ketoglutaric acid with 2 μl of 11-point serial diluted inhibitor in 3% DMSO were added to each well of the plate, followed by the addition of 2 μl of 0.9 nM JMJD2C to initiate the reaction. The reaction mixture was incubated at room temperature for 30 minutes, and terminated by the addition of 6 μl of 5 mM EDTA in LANCE detection buffer containing 100 nM Phycolink Streptavidin-allophycocyanin and 2 nM Europium-anti-H3K9me2 antibody. Plates were read by EnVisionMultilabel Reader in TR-FRET mode (excitation at 320 nm, emission at 615 nm and 665 nm) after 1 hour incubation at room temperature. A ratio was calculated (665/615) for each well and fitted to determine inhibition constant (IC50).

[2] = test system: KYSE-150 esophageal carcinoma cell line; assay: In vitro cell-based assay: cellular proliferation via BrdU incorporation (ELISA); set-up: species or system human; settings: KYSE-150, 168 hours compound incubation
Description: The primary cellular assay for JMJD2C inhibition is an assay which measures cellular proliferation via Bromodeoxyuridine (BrdU) incorporation after 168 hours of compound incubation. Cell lines tested include the JMJD2C gene amplified cell line KYSE-150. This is a quantitative ELISA assay measuring DNA incorporation of BrdU during S-phase as a direct readout of cellular proliferation.
Assay Principle: This is a colorimetric immunoassay for the quantification of cell proliferation. Cells treated for 168 hours with test compounds are assayed for their ability to go through S-phase as a measure of their proliferative potential.
Assay Method: The human KYSE-150 (SMAD4 mut, TP53 mut) esophageal carcinoma cell line was seeded at 2,000 cells/well on a 96-well tissue culture treated plate. After an overnight incubation, cells were treated with compound in an 11-point dilution series with final concentrations ranging from 100 μM to 2 nM. Cells were then incubated in the presence of compound for 168 hours. After compound incubation the cells were assayed using a BrdU Cell Proliferation ELISA (Roche). The cells were first incubated with BrdU labeling reagent for 2 hours. After 2 hours, the BrdU incorporated cells were fixed and denatured, probed with an anti-BrdU-Peroxidase antibody for 1.5 hours and washed. Finally, a tetramethylbenzidine peroxidase substrate was added to each well for 15 minutes followed by a H2SO4 stop solution. The plate was read at 450 nm, and the raw optical density data was transferred into XLFit (IDBS) for IC50 calculation using the formula: fit=(D+((Vmax*(x^n))/((x^n)+(Km^n))))

Sequence of JMJD2C (Q9H3R0 2-372): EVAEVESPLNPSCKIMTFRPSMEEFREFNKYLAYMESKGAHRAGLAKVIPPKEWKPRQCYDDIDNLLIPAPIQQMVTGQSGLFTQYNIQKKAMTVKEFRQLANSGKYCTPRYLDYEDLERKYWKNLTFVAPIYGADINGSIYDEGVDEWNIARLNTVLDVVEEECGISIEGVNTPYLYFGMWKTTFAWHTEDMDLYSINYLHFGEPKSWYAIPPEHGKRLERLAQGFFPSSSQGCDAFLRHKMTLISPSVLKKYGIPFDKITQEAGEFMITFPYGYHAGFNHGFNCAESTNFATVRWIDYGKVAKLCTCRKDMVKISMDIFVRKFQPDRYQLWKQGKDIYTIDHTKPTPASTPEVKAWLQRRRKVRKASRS

Compound	IC50 [1]	IC50 ([2]; Homo sapiens)	IC50 [2]
CN(c1ccc2c(c1)OCC[C@H]2CNc1cnccc1C(=O)O)c1ccc(F)cc1F [Example 104, 3-({[(4R)-7-[(2,4-difluorophenyl)(methyl)amino]-3,4-dihydro-2H-1-benzopyran-4-yl]methyl}amino)pyridine-4-carboxylic acid]	100 to 1000 nM	100 to 1000 nM	–
Cc1cccc(Oc2ccc3c(c2)CCCC3CNc2cnccc2C(=O)O)n1 (centres unmarked) [Example 56, 3-[({6-[(6-methylpyridin-2-yl)oxy]-1,2,3,4-tetrahydronaphthalen-1-yl}methyl)amino]pyridine-4-carboxylic acid]	100 to 1000 nM	1000 to 10000 nM	–
CN(c1ccc(OCC2CC2)cc1)c1ccc2c(c1)OCC[C@H]2CNc1cnccc1C(=O)O [Example 211, 3-({[(4R)-7-{[4-(cyclopropylmethoxy)phenyl](methyl)amino}-3,4-dihydro-2H-1-benzopyran-4-yl]methyl}amino)pyridine-4-carboxylic acid]	100 to 1000 nM	≤ 100 nM	–
CN(c1ccc2c(c1)CCC2)c1ccc2c(c1)OCC[C@H]2CNc1cnccc1C(=O)O [Example 131, 3-({[(4R)-7-[(2,3-dihydro-1H-inden-5-yl)(methyl)amino]-3,4-dihydro-2H-1-benzopyran-4-yl]methyl}amino)pyridine-4-carboxylic acid]	100 to 1000 nM	≤ 100 nM	–
CN(c1cccnc1)c1ccc2c(c1)CCC[C@H]2CNc1cnccc1C(=O)O [Example 12, 3-({[(1R)-6-[methyl(pyridin-3-yl)amino]-1,2,3,4-tetrahydronaphthalen-1-yl]methyl}amino)pyridine-4-carboxylic acid]	≤ 100 nM	100 to 1000 nM	–
3-({[(1R)-6-[methyl(2-methyl-1,3-thiazol-4-yl)amino]-1,2,3,4-tetrahydronaphthalen-1-yl]methyl}amino)pyridine-4-carboxylic acid [Example 139]	100 to 1000 nM	–	≤ 100 nM
CN(c1ccc2c(c1)CCC[C@H]2CNc1cnccc1C(=O)O)c1ccc2ccoc2c1 [Example 135, 3-({[(1R)-6-[(1-benzofuran-6-yl)(methyl)amino]-1,2,3,4-tetrahydronaphthalen-1-yl]methyl}amino)pyridine-4-carboxylic acid]	100 to 1000 nM	≤ 100 nM	–
CN(c1ccc(F)cc1)c1ccc2c(c1)CCC[C@H]2CNc1cnccc1C(=O)O [Example 8, 3-({[(1R)-6-[(4-fluorophenyl)(methyl)amino]-1,2,3,4-tetrahydronaphthalen-1-yl]methyl}amino)pyridine-4-carboxylic acid]	100 to 1000 nM	≤ 100 nM	–
O=C(O)c1ccncc1NCC1CCOc2cc(Sc3cccs3)ccc21 (centres unmarked) [Example 49, 3-({[7-(thiophen-2-ylsulfanyl)-3,4-dihydro-2H-1-benzopyran-4-yl]methyl}amino)pyridine-4-carboxylic acid]	100 to 1000 nM	1000 to 10000 nM	–
O=C(O)c1ccncc1NC[C@@H]1CCCc2cc(N3CCCC3)ccc21 [Example 106, 3-({[(1R)-6-(pyrrolidin-1-yl)-1,2,3,4-tetrahydronaphthalen-1-yl]methyl}amino)pyridine-4-carboxylic acid]	100 to 1000 nM	100 to 1000 nM	–
CN(c1ccc2c(c1)CCC[C@H]2CNc1cnccc1C(=O)O)c1ccn(C)c(=O)c1 [Example 155, 3-({[(1R)-6-[methyl(1-methyl-2-oxo-1,2-dihydropyridin-4-yl)amino]-1,2,3,4-tetrahydronaphthalen-1-yl]methyl}amino)pyridine-4-carboxylic acid]	100 to 1000 nM	> 10000 nM	–
COCCOc1ccc(N(C)c2ccc3c(c2)CCC[C@H]3CNc2cnccc2C(=O)O)cc1 [Example 197, 3-({[(1R)-6-{[4-(2-methoxyethoxy)phenyl](methyl)amino}-1,2,3,4-tetrahydronaphthalen-1-yl]methyl}amino)pyridine-4-carboxylic acid]	100 to 1000 nM	≤ 100 nM	–
COc1ccc(N(C)c2ccc3c(c2)CCC[C@H]3CNc2cnccc2C(=O)O)cc1 [Example 177, 3-({[(1R)-6-[(4-methoxyphenyl)(methyl)amino]-1,2,3,4-tetrahydronaphthalen-1-yl]methyl}amino)pyridine-4-carboxylic acid]	100 to 1000 nM	≤ 100 nM	–
COc1cc(N(C)c2ccc3c(c2)CCC[C@H]3CNc2cnccc2C(=O)O)ccc1F [Example 114, 3-({[(1R)-6-[(4-fluoro-3-methoxyphenyl)(methyl)amino]-1,2,3,4-tetrahydronaphthalen-1-yl]methyl}amino)pyridine-4-carboxylic acid]	100 to 1000 nM	100 to 1000 nM	–
COc1ccc(F)cc1-c1ccc2c(c1)OCC[C@H]2CNc1cnccc1C(=O)O [Example 102, 3-({[(4R)-7-(5-fluoro-2-methoxyphenyl)-3,4-dihydro-2H-1-benzopyran-4-yl]methyl}amino)pyridine-4-carboxylic acid]	100 to 1000 nM	100 to 1000 nM	–
Cc1cc(-c2ccc3c(c2)CCCC3CNc2cnccc2C(=O)O)ccn1 (centres unmarked) [Example 89, 3-({[6-(2-methylpyridin-4-yl)-1,2,3,4-tetrahydronaphthalen-1-yl]methyl}amino)pyridine-4-carboxylic acid, hydrochloride]	100 to 1000 nM	> 10000 nM	–
Cc1ccc(F)cc1-c1ccc2c(c1)OCC[C@H]2CNc1cnccc1C(=O)O [Example 43, 3-({[(4R)-7-(5-fluoro-2-methylphenyl)-3,4-dihydro-2H-1-benzopyran-4-yl]methyl}amino)pyridine-4-carboxylic acid]	100 to 1000 nM	≤ 100 nM	–
CN(c1ccc2c(c1)OCC[C@H]2CNc1cnccc1C(=O)O)c1ccccc1F [Example 19, 3-({[(4R)-7-[(2-fluorophenyl)(methyl)amino]-3,4-dihydro-2H-1-benzopyran-4-yl]methyl}amino)pyridine-4-carboxylic acid]	100 to 1000 nM	≤ 100 nM	–
CC(C)C#Cc1ccc2c(c1)OCCC2CNc1cnccc1C(=O)O (centres unmarked) [Example 38, 3-({[7-(3-methylbut-1-yn-1-yl)-3,4-dihydro-2H-1-benzopyran-4-yl]methyl}amino)pyridine-4-carboxylic acid]	100 to 1000 nM	> 10000 nM	–
CN(c1ccc(C2CC2)cc1)c1ccc2c(c1)CCC[C@H]2CNc1cnccc1C(=O)O [Example 161, 3-({[(1R)-6-[(4-cyclopropylphenyl)(methyl)amino]-1,2,3,4-tetrahydronaphthalen-1-yl]methyl}amino)pyridine-4-carboxylic acid]	1000 to 10000 nM	≤ 100 nM	–
CN(c1cccc(Cl)c1)c1ccc2c(c1)OCC[C@H]2CNc1cnccc1C(=O)O [Example 110, 3-({[(4R)-7-[(3-chlorophenyl)(methyl)amino]-3,4-dihydro-2H-1-benzopyran-4-yl]methyl}amino)pyridine-4-carboxylic acid]	1000 to 10000 nM	≤ 100 nM	–
CN(c1ccc(CO)cc1)c1ccc2c(c1)CCC[C@H]2CNc1cnccc1C(=O)O [Example 158, 3-({[(1R)-6-{[4-(hydroxymethyl)phenyl](methyl)amino}-1,2,3,4-tetrahydronaphthalen-1-yl]methyl}amino)pyridine-4-carboxylic acid]	100 to 1000 nM	100 to 1000 nM	–
